Measurements reported in PubChem BioAssay (NCI).
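Protocol summary: plate cells (96-well), add compound at 5 concentrations, incubate 48 h, interpolate endpoints linearly. The concentration for 50% growth inhibition is given as GI50. The concentration for full growth arrest is given as TGI.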

Tests used:
Experiment in all cases: inhibition of tumour cell growth, NCI panel, 48 h
HL-60(TB) leukemia = tested on: HL-60(TB) leukemia
MALME-3M melanoma = tested on: MALME-3M melanoma
SK-MEL-28 melanoma = tested on: SK-MEL-28 melanoma
OVCAR-3 ovarian = tested on: OVCAR-3 ovarian
NCI-H23 lung = tested on: NCI-H23 lung
786-0 renal = tested on: 786-0 renal
SNB-75 CNS = tested on: SNB-75 CNS
MDA-MB-435 = tested on: MDA-MB-435
DU-145 prostate = tested on: DU-145 prostate
BT-549 breast = tested on: BT-549 breast

Row | SMILES | TGI (HL-60(TB) leukemia) [µM] | TGI (MALME-3M melanoma) [µM] | TGI (SK-MEL-28 melanoma) [µM] | TGI (OVCAR-3 ovarian) [µM] | TGI (NCI-H23 lung) [µM] | TGI (786-0 renal) [µM] | TGI (SNB-75 CNS) [µM] | TGI (MDA-MB-435) [µM] | TGI (DU-145 prostate) [µM] | TGI (BT-549 breast) [µM] | GI50 (HL-60(TB) leukemia) [µM] | GI50 (MALME-3M melanoma) [µM] | GI50 (SK-MEL-28 melanoma) [µM] | GI50 (SNB-75 CNS) [µM] | GI50 (OVCAR-3 ovarian) [µM] | GI50 (NCI-H23 lung) [µM] | GI50 (MDA-MB-435) [µM] | GI50 (BT-549 breast) [µM] | GI50 (DU-145 prostate) [µM]
1 | O=C(Cc1nc2c3c(ccc2[nH]c1=O)C(=O)c1ccccc1C3=O)C(=O)Nc1ccccc1[N+](=O)[O-] | 43.7 | 36.6 | 30.3 | 25.6 | 35.4 | 34.4 | – | – | – | – | – | – | – | – | – | – | – | – | –
2 | O=C(NC(COC(=O)C(Cc1ccccc1)NC(=O)c1ccccc1)Cc1ccccc1)c1ccccc1 (centres undefined) | > 50 | > 50 | > 50 | > 50 | > 50 | – | > 50 | > 50 | – | – | – | – | – | – | – | – | – | – | –
3 | CCOC(CNCCC(=O)OC)OCC | > 10 | > 10 | > 10 | > 10 | > 10 | > 10 | > 10 | > 10 | > 10 | – | – | – | – | – | – | – | – | – | –
4 | COc1cc2c(cc1OC)[C@H]1CN3CCC[C@H]3C=C1c1ccc(OC)c(O)c1-2 | – | 0.00179 | – | – | 0.00184 | 0.0169 | – | 0.0269 | 0.162 | 0.206 | – | – | – | – | – | – | – | – | –
5 | CC1=C2C(=C[C@H]3[C@]4(C)CCCC(C)(C)[C@H]4CC[C@]34O[C@H]24)OC1=O | – | > 100 | > 100 | – | > 100 | > 100 | > 100 | > 100 | > 100 | > 100 | – | – | – | – | – | – | – | – | –
6 | N#CC1=C(c2ccccc2)NNC(c2ccc(Cl)cc2)CC1=O (centres undefined) | > 100 | > 100 | > 100 | – | > 100 | – | 41.7 | – | – | – | – | – | – | – | – | – | – | – | –
7 | O=C1Sc2ccccc2C(=O)N2CSCC12 (centres undefined) | > 100 | > 100 | > 100 | > 100 | > 100 | > 100 | > 100 | – | – | – | – | – | – | – | – | – | – | – | –
8 | CSC(=Nc1ccccc1)N(c1ccccc1)c1nc(=[N+](C)C)ss1 | 3.2 | 22.6 | 2.83 | 4.83 | 19.8 | 19.3 | 16.3 | – | – | – | – | – | – | – | – | – | – | – | –
9 | COc1cc2cc(Oc3ccc(NC(=O)c4cc(C(F)(F)F)cc(C(F)(F)F)c4)cc3)c(C)nc2cc1OC | > 50 | > 50 | > 50 | > 50 | > 50 | – | > 50 | > 50 | > 50 | > 50 | 3.51 | > 50 | > 50 | 41.5 | 1.96 | 2.71 | > 50 | 3.02 | 4.78
10 | COc1ccc(CC2c3c(cc(OC)c(OC)c3OC)CCN2C)cc1OC (centres undefined) | – | > 100 | > 100 | > 100 | > 100 | > 100 | > 100 | – | – | – | – | – | – | – | – | – | – | – | –
11 | CC(O)CCCOC(c1ccccc1)(c1ccccc1)c1ccccc1 (centres undefined) | > 55.1 | 27.8 | 30.1 | 27.3 | 27.6 | 30.3 | 25.8 | 30.4 | 30.4 | – | – | – | – | – | – | – | – | – | –
12 | Cc1ccc(OCCn2cc(Nc3ccccc3)c(=O)n(CCOc3ccc(C)cc3)c2=O)cc1 | – | > 100 | > 100 | > 100 | > 100 | > 100 | > 100 | > 100 | > 100 | > 100 | – | – | – | – | – | – | – | – | –
13 | CCOC(=O)c1nc2ccc(C(F)(F)F)cc2nc1Oc1ccc(C#N)cc1 | > 100 | – | > 100 | – | > 100 | 35.6 | 28 | > 100 | 38.1 | 36.8 | – | – | – | – | – | – | – | – | –
14 | C(=Nc1ccc(-c2nc3ccccc3o2)cc1)c1ccco1 | – | > 100 | > 100 | – | > 100 | > 100 | > 100 | > 100 | > 100 | > 100 | – | – | – | – | – | – | – | – | –
15 | NNC1=N/C(=C\c2ccco2)C(Cl)=N1 | 51.4 | > 100 | > 100 | > 100 | > 100 | > 100 | > 100 | > 100 | > 100 | – | – | – | – | – | – | – | – | – | –
16 | CC12CCC3C(CCC4CC(OC(=O)Cc5ccc(N(CCCl)CCCl)cc5)CCC43C)C1CCC(=O)N2 (centres undefined) | 22 | 32.9 | 30.9 | 32.1 | 25.8 | 28.8 | 28.9 | – | – | – | – | – | – | – | – | – | – | – | –
17 | COc1ccc(-c2oc(/C=N/NC(N)=S)c([N+](=O)[O-])c2-c2ccc(OC)c(OC)c2)cc1OC | 55 | 35.9 | 86.1 | 47.9 | > 100 | > 100 | 72.3 | – | – | – | – | – | – | – | – | – | – | – | –
18 | O=c1[nH]cnc(NC2C=C(CO)C(O)C2O)c1[N+](=O)[O-] (centres undefined) | > 51.7 | > 100 | > 100 | > 100 | > 100 | > 64.3 | > 100 | – | – | – | – | – | – | – | – | – | – | – | –
19 | CCN(CC)CCCNC(=O)c1ccc([N+](=O)[O-])cc1O | > 100 | > 100 | > 100 | > 100 | > 100 | > 100 | > 100 | – | – | – | – | – | – | – | – | – | – | – | –
20 | O=C1NCC(NC(=O)C(F)(F)F)c2c(Br)sc(Br)c21 (centres undefined) | – | > 100 | > 100 | > 100 | > 100 | > 100 | > 100 | > 100 | > 100 | > 100 | – | – | – | – | – | – | – | – | –
21 | CNc1ncnc2c1cnn2COCC(O)CO (centres undefined) | – | > 100 | > 100 | > 100 | > 100 | > 100 | > 100 | > 100 | > 100 | > 100 | – | – | – | – | – | – | – | – | –
22 | Cc1c(N2C(=O)C(Cl)C2c2ccc(Cl)cc2)c(=O)n(-c2ccccc2)n1C (centres undefined) | > 100 | > 100 | – | > 100 | 85.1 | > 100 | – | 59.8 | > 100 | > 100 | – | – | – | – | – | – | – | – | –
23 | O=C1NCCS(=O)(=O)N[C@@H](CC2=CC=CCC2)C(=O)N2CCCC12 (some centres undefined) | > 100 | > 100 | > 100 | > 100 | > 100 | > 100 | > 100 | – | – | – | – | – | – | – | – | – | – | – | –
24 | O=C(NCCCN(CCCCN(CCCNC(=O)C(F)(F)F)Cc1ccc2ccccc2c1)Cc1ccc2ccccc2c1)C(F)(F)F | – | – | 5.88 | > 100 | – | > 100 | > 100 | 3.87 | > 100 | > 100 | – | – | – | – | – | – | – | – | –
25 | CC1(C)C2CC(=O)C1(C)C(O)C2Br (centres undefined) | > 100 | > 100 | > 100 | > 100 | > 100 | > 100 | – | > 100 | > 100 | > 100 | – | – | – | – | – | – | – | – | –
